The source of these data is patent US12479847B2 (DANA-FARBER CANCER INSTITUTE, INC., priority 2019, dated 2025).

What all share (experiment): KINOMEscan (ScanMAX) kinase profiling
Holding throughout (assay type): binding

Assay [1] addresses T1, panel of 468 kinases (Homo sapiens, UniProt P36888, K663Q).
T1 construct: purchased KINOMEscan (ScanMAX) service
T1 sequence (P36888 27-993 K663Q): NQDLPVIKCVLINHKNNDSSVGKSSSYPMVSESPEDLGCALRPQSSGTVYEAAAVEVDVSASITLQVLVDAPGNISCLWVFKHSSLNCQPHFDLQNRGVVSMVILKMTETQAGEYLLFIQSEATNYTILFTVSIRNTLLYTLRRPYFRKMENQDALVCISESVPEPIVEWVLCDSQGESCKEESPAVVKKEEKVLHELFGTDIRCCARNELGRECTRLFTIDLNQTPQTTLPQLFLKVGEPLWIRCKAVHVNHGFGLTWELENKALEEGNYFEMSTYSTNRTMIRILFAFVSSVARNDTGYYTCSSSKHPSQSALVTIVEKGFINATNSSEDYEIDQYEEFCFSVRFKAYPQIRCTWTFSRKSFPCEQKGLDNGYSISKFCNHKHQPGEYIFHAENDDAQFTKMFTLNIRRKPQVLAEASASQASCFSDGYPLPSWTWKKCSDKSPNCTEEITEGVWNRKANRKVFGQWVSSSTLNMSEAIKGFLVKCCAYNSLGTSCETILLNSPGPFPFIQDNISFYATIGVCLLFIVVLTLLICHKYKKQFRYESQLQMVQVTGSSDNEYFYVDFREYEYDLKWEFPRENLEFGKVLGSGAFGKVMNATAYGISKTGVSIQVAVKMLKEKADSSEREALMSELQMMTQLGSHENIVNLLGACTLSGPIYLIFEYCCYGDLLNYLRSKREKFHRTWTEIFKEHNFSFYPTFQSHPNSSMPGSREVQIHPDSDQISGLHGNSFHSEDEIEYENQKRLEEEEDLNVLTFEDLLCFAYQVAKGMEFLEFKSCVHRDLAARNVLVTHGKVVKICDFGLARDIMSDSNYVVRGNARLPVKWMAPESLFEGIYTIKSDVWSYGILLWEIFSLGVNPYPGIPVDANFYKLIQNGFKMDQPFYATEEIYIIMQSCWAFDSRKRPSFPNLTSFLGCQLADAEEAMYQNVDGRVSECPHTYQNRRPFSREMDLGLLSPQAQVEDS
The settings on record: FLT3(K663Q); 1 μM; read-out: % control.

The target of assay [2] is T2, panel of 468 kinases (Homo sapiens, UniProt O00238).
T2 construct: purchased KINOMEscan (ScanMAX) service
The conditions noted are these: BMPR1B; 1 μM; read-out: % control.

Assay [3] deals with T3, panel of 468 kinases (Homo sapiens, UniProt O14757).
T3 construct: purchased KINOMEscan (ScanMAX) service
T3 sequence (O14757 1-476): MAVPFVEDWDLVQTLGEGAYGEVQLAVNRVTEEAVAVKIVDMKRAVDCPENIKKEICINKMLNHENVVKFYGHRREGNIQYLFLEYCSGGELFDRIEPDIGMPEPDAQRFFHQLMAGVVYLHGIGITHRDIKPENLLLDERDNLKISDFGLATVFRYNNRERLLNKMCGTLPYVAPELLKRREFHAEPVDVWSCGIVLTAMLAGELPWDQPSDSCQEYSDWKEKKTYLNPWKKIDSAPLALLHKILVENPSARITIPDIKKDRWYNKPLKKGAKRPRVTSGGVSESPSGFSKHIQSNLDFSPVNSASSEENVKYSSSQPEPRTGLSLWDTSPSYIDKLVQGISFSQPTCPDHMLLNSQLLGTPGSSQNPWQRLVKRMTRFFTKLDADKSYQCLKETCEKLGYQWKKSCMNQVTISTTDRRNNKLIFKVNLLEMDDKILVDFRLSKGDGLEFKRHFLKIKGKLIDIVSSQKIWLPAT
The conditions noted are these: CHEK1; 1 μM; read-out: % control.

Assay [4] concerns the target T4, panel of 468 kinases (Homo sapiens, UniProt P07948).
T4 construct: purchased KINOMEscan (ScanMAX) service
The conditions noted are these: LYN; 1 μM; read-out: % control.

Assay [5] concerns the target T5, panel of 468 kinases (Homo sapiens, UniProt P29323).
T5 construct: purchased KINOMEscan (ScanMAX) service
T5 sequence (P29323 19-1055): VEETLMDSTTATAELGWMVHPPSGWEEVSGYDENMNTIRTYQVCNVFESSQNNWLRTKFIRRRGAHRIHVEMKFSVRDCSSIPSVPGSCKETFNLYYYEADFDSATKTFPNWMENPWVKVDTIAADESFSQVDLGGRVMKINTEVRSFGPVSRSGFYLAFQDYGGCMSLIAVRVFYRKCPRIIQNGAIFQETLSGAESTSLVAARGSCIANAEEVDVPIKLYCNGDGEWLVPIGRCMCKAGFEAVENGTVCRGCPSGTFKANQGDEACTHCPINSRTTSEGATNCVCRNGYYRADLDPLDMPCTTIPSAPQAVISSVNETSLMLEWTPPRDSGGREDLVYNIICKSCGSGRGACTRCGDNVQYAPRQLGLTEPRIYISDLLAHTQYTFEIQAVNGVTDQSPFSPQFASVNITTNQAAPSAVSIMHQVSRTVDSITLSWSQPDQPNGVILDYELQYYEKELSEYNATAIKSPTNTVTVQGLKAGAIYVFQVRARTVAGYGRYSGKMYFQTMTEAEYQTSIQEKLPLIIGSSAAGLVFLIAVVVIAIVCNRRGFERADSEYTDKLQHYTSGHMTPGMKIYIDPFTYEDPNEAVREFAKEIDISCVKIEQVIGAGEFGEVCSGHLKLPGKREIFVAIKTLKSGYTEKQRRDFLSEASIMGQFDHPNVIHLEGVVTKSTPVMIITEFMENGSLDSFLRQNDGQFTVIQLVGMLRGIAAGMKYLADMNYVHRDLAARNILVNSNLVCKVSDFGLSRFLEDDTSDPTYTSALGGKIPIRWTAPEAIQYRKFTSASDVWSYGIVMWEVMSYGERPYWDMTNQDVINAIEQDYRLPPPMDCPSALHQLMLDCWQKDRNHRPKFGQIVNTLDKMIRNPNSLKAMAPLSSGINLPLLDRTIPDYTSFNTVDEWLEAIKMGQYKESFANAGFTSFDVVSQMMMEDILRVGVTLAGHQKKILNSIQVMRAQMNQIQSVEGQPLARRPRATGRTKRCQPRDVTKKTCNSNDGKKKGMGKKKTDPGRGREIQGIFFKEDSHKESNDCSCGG
The conditions noted are these: EPHB2; 1 μM; read-out: % control.

T4 sequence (P07948 whole entry): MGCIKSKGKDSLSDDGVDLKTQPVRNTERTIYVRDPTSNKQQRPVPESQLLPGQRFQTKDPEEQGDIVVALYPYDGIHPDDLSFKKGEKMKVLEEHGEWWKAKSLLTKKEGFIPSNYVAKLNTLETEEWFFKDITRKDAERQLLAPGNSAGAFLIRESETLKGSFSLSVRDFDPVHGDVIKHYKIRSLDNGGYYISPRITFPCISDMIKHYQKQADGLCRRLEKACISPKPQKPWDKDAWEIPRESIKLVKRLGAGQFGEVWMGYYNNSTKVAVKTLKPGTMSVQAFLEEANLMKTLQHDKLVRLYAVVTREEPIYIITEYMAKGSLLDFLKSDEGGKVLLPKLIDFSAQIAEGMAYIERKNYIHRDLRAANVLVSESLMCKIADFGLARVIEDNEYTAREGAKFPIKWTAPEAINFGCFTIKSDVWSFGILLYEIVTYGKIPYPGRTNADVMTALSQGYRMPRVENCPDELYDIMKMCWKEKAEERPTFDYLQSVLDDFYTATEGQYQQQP
T2 sequence (O00238 14-502): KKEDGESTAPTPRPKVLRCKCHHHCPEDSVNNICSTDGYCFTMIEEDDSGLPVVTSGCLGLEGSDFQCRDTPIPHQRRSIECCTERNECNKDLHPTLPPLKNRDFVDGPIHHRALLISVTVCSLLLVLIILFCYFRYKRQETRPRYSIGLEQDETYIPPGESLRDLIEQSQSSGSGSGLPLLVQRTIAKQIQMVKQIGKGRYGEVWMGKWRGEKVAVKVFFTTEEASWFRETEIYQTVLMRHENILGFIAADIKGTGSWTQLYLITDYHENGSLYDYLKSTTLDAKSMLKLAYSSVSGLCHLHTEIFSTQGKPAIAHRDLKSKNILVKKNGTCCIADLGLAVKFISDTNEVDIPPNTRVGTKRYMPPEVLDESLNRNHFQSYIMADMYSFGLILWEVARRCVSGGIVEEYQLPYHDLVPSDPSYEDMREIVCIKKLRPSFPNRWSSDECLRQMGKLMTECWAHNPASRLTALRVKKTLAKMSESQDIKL

Turning to `CNc1nc(Nc2ccc(S(=O)(=O)N3CCC(N4CCOCC4)CC3)cc2OC)nc2[nH]cc(Cl)c12` [Compound 12, 5-chloro-N2-(2-methoxy-4-((4-morpholinopiperidin-1-yl)sulfonyl)phenyl)-N4-methyl-7H-pyrrolo[2,3-d]pyrimidine-2,4-diamine], the remaining binding at 1 µM in assay [1] was determined as 100%; in assay [2] it was 76%; in assay [3], 100%; in assay [4], 100%; in assay [5] it was 100%.
Take `CNc1nc(Nc2ccc(P3(=O)CCN(C4CCOCC4)CC3)cc2OC)nc2[nH]cc(Cl)c12` [Compound 77, 4-(4-((5-chloro-4-(methylamino)-7H-pyrrolo[2,3-d]pyrimidin-2-yl)amino)-3-methoxyphenyl)-1-(tetrahydro-2H-pyran-4-yl)-1,4-azaphosphinane 4-oxide]: the remaining binding at 1 µM is 99% in assay [1]; 80% in assay [2]; 100% in assay [3]; 100% in assay [4]; 100% in assay [5].
As for `CNc1nc(Nc2ccc(C(=O)N3CCC(N4CCOCC4)CC3)c3c2OCO3)nc2[nH]cc(Cl)c12` [Compound 75, (7-((5-chloro-4-(methylamino)-7H-pyrrolo[2,3-d]pyrimidin-2-yl)amino)benzo[d][1,3]dioxol-4-yl)(4-morpholinopiperidin-1-yl)methanone], the remaining binding at 1 µM in assay [1] is 72%; in assay [2], 67%; in assay [3] it was 67%; in assay [4], 100%; in assay [5], 100%.
